Tests used:
Assay type in all cases: in vivo, rat
[1] = test system: IgG2a; assay: Ovalbumin-specific IgG2a ELISA of serum of immunised rats; conditions: pooled group serum
Experimental: (§1) Rats were injected with vaccine compositions comprising the ovalbumin antigen with and without di-oleoyl phosphatidyl serine, lyso-oleoyl phosphatidyl serine or stearoyl(X1)-arachidonoyl(X2) phosphatidyl serine and the concentrations of IgE, IgA and IgG are compared.
(§2) The animals were acclimatised for a period of 5 days prior to dosing. During the acclimatisation period animals were observed twice daily during the working week and once on each day during the weekend to evaluate the health status of the animals. Rats were then allocated to the following dose groups using computer-generated random order numbers.
(§3) On day 0, 20 μg of ovalbumin (OA) in phosphate buffered saline (PBS) with alhydrogel (AHG) adjuvant in a final volume of 0.5 mL was administered.
(§4) On days 21 and 42, 20 μg of ovalbumin (OA) in phosphate buffered saline (PBS) with the relevant test compound in a final volume of 0.5 ml was administered.
(§5) In each case, 0.5 mL of inoculum was injected subcutaneously into the scruff of the neck. […]
(§6) Serum was prepared by centrifugation of the blood sample at 2,500 rpm for 10 minutes and frozen at −20° C. The samples were then analysed by ELISA to establish the concentration of IgE, IgA and IgG1, IgG2a and IgG2b.
(§7) The purpose of an ELISA is to determine whether a particular protein is present in a sample and then enables quantification of how much is present. By coating the bottom of wells with ovalbumin (OVA) it is possible to bind anti-OVA specific antibodies. To detect only anti-OVA IgA antibodies anti-rat IgA conjugated to HRP was used as a secondary antibody. Quantification of specific antibodies in the rat sera samples was performed using antibody titrations. The data was reported as endpoint titers. Endpoint titers are defined as the last serum dilution giving an optical density value equal to twice the background optical density for the ELISA plate (buffer).

[2] = test system: IgA; assay: Ovalbumin-specific IgA ELISA of serum of immunised rats; conditions: Day 1; 50 ug with 20 μg Ova s.c. on days 21 and 42; pooled group serum
[3] = test system: IgG1; assay: Ovalbumin-specific IgG1 ELISA of serum of immunised rats; conditions: pooled group serum
Experimental: as §1, §2, §3, §4, §5, §6
as §7, with “To detect only anti-OVA IgA antibodies anti-rat IgA conjugated to HRP was used as a secondary antibody.” left out

[4] = test system: IgE; assay: Ovalbumin-specific IgE ELISA of serum of immunised rats; conditions: pooled group serum
Experimental: as §1, §2, §3, §4
(§8) In each case, 0.5 mL of inoculum was injected subcutaneously into the scruff of the neck.
(§9) […] A blood sample was also taken from each animal on Days 15, 22, 29, 36, 43, 50, 57 and 64.
as §6, §7

[5] = test system: IgE; assay: as above; conditions: Day 1; 250 ug with 20 μg Ova s.c. on days 21 and 42; pooled group serum
[6] = test system: IgA; assay: Ovalbumin-specific IgA ELISA of serum of immunised rats; conditions: pooled group serum
Experimental: as §1, §2, §3, §4, §8
On Day 0 a pre-inoculation blood sample was taken. A blood sample was also taken from each animal on Days 15, 22, 29, 36, 43, 50, 57 and 64.
as §6, §7

[7] = test system: IgG2b; assay: Ovalbumin-specific IgG2b ELISA of serum of immunised rats; conditions: pooled group serum
Experimental: as §1, §2, §3, §4, §8, §9, §6, §7

[8] = Day 1, 50 ug with 20 μg Ova s.c. on days 21 and 42
[9] = Day 1, 250 ug with 20 μg Ova s.c. on days 21 and 42
[10] = Day 15, 50 ug with 20 μg Ova s.c. on days 21 and 42
[11] = Day 15, 250 ug with 20 μg Ova s.c. on days 21 and 42
[12] = Day 22, 50 ug with 20 μg Ova s.c. on days 21 and 42
[13] = Day 22, 250 ug with 20 μg Ova s.c. on days 21 and 42
[14] = Day 29, 50 ug with 20 μg Ova s.c. on days 21 and 42
[15] = Day 29, 250 ug with 20 μg Ova s.c. on days 21 and 42
[16] = Day 36, 50 ug with 20 μg Ova s.c. on days 21 and 42
[17] = Day 36, 250 ug with 20 μg Ova s.c. on days 21 and 42
[18] = Day 43, 50 ug with 20 μg Ova s.c. on days 21 and 42
[19] = Day 43, 250 ug with 20 μg Ova s.c. on days 21 and 42
[20] = Day 50, 50 ug with 20 μg Ova s.c. on days 21 and 42
[21] = Day 50, 250 ug with 20 μg Ova s.c. on days 21 and 42
[22] = Day 57, 50 ug with 20 μg Ova s.c. on days 21 and 42
[23] = Day 57, 250 ug with 20 μg Ova s.c. on days 21 and 42
[24] = Day 64, 50 ug with 20 μg Ova s.c. on days 21 and 42
[25] = Day 64, 250 ug with 20 μg Ova s.c. on days 21 and 42

**Q.** How did the IgG2a endpoint titer [1, 8] turn out when `CCCCCCCC/C=C\CCCCCCCC(=O)OC[C@H](COP(=O)(O)OC[C@H](N)C(=O)O)OC(=O)CCCCCCC/C=C\CCCCCCCC` [VT001, Dioleoyl phosphatidyl serine] was run?
**A.** 0

**Q.** And the IgG2a endpoint titer [1, 9]?
**A.** 0

**Q.** What about the IgG2a endpoint titer [1, 10] of the same compound?
**A.** 40

**Q.** And the IgG2a endpoint titer [1, 11]?
**A.** 640

**Q.** And the IgG2a endpoint titer [1, 12]?
**A.** 2560

**Q.** What about the IgG2a endpoint titer [1, 13] of the same compound?
**A.** 1280

**Q.** What about the IgG2a endpoint titer [1, 14] of the same compound?
**A.** 5120

**Q.** And the IgG2a endpoint titer [1, 15]?
**A.** 2560

**Q.** What about the IgG2a endpoint titer [1, 16] of the same compound?
**A.** 10240

**Q.** What about the IgG2a endpoint titer [1, 17] of the same compound?
**A.** 5120

**Q.** And the IgG2a endpoint titer [1, 18]?
**A.** 10240

**Q.** And the IgG2a endpoint titer [1, 19]?
**A.** 10240

**Q.** What about the IgG2a endpoint titer [1, 20] of the same compound?
**A.** 40960

**Q.** And the IgG2a endpoint titer [1, 21]?
**A.** 40960

**Q.** And the IgG2a endpoint titer [1, 22]?
**A.** 40960

**Q.** What about the IgG2a endpoint titer [1, 23] of the same compound?
**A.** 40960

**Q.** And the IgG2a endpoint titer [1, 24]?
**A.** 20480

**Q.** What about the IgG2a endpoint titer [1, 25] of the same compound?
**A.** 20480

**Q.** And the IgA endpoint titer [2]?
**A.** 0

**Q.** And the IgG1 endpoint titer [3, 8]?
**A.** 0

**Q.** What about the IgG1 endpoint titer [3, 9] of the same compound?
**A.** 0

**Q.** What about the IgG1 endpoint titer [3, 10] of the same compound?
**A.** 160

**Q.** What about the IgG1 endpoint titer [3, 11] of the same compound?
**A.** 160

**Q.** What about the IgG1 endpoint titer [3, 12] of the same compound?
**A.** 2560

**Q.** And the IgG1 endpoint titer [3, 13]?
**A.** 2560

**Q.** And the IgG1 endpoint titer [3, 14]?
**A.** 40960

**Q.** What about the IgG1 endpoint titer [3, 15] of the same compound?
**A.** 20480

**Q.** And the IgG1 endpoint titer [3, 16]?
**A.** 20480

**Q.** What about the IgG1 endpoint titer [3, 17] of the same compound?
**A.** 40960

**Q.** What about the IgG1 endpoint titer [3, 18] of the same compound?
**A.** 10240

**Q.** What about the IgG1 endpoint titer [3, 19] of the same compound?
**A.** 10240

**Q.** And the IgG1 endpoint titer [3, 20]?
**A.** 20480

**Q.** What about the IgG1 endpoint titer [3, 21] of the same compound?
**A.** 10240

**Q.** And the IgG1 endpoint titer [3, 22]?
**A.** 40960

**Q.** What about the IgG1 endpoint titer [3, 23] of the same compound?
**A.** 40960

**Q.** What about the IgG1 endpoint titer [3, 24] of the same compound?
**A.** 20480

**Q.** What about the IgG1 endpoint titer [3, 25] of the same compound?
**A.** 20480

**Q.** And the IgE endpoint titer [4, 8]?
**A.** 0

**Q.** And the IgE endpoint titer [4, 10]?
**A.** 0

**Q.** And the IgE endpoint titer [4, 11]?
**A.** 0

**Q.** And the IgE endpoint titer [4, 12]?
**A.** 0

**Q.** And the IgE endpoint titer [4, 13]?
**A.** 0

**Q.** And the IgE endpoint titer [4, 14]?
**A.** 0

**Q.** And the IgE endpoint titer [4, 15]?
**A.** 40

**Q.** And the IgE endpoint titer [4, 16]?
**A.** 40

**Q.** What about the IgE endpoint titer [4, 17] of the same compound?
**A.** 40

**Q.** And the IgE endpoint titer [4, 18]?
**A.** 0

**Q.** What about the IgE endpoint titer [4, 19] of the same compound?
**A.** 80

**Q.** What about the IgE endpoint titer [4, 20] of the same compound?
**A.** 1280

**Q.** And the IgE endpoint titer [4, 21]?
**A.** 1280

**Q.** What about the IgE endpoint titer [4, 22] of the same compound?
**A.** 160

**Q.** What about the IgE endpoint titer [4, 23] of the same compound?
**A.** 160

**Q.** And the IgE endpoint titer [4, 24]?
**A.** 0

**Q.** What about the IgE endpoint titer [4, 25] of the same compound?
**A.** 40

**Q.** What about the IgE endpoint titer [5] of the same compound?
**A.** 0

**Q.** And the IgA endpoint titer [6, 9]?
**A.** 0

**Q.** And the IgA endpoint titer [6, 10]?
**A.** 0

**Q.** What about the IgA endpoint titer [6, 11] of the same compound?
**A.** 0

**Q.** And the IgA endpoint titer [6, 12]?
**A.** 0

**Q.** And the IgA endpoint titer [6, 13]?
**A.** 0

**Q.** What about the IgA endpoint titer [6, 14] of the same compound?
**A.** 320

**Q.** And the IgA endpoint titer [6, 15]?
**A.** 320

**Q.** And the IgA endpoint titer [6, 16]?
**A.** 640

**Q.** And the IgA endpoint titer [6, 17]?
**A.** 640

**Q.** And the IgA endpoint titer [6, 18]?
**A.** 320

**Q.** What about the IgA endpoint titer [6, 19] of the same compound?
**A.** 640

**Q.** What about the IgA endpoint titer [6, 20] of the same compound?
**A.** 1280

**Q.** And the IgA endpoint titer [6, 21]?
**A.** 1280

**Q.** And the IgA endpoint titer [6, 22]?
**A.** 1280

**Q.** What about the IgA endpoint titer [6, 23] of the same compound?
**A.** 1280

**Q.** What about the IgA endpoint titer [6, 24] of the same compound?
**A.** 640

**Q.** What about the IgA endpoint titer [6, 25] of the same compound?
**A.** 640

**Q.** And the IgG2b endpoint titer [7, 8]?
**A.** 0

**Q.** And the IgG2b endpoint titer [7, 9]?
**A.** 0

**Q.** What about the IgG2b endpoint titer [7, 10] of the same compound?
**A.** 160

**Q.** And the IgG2b endpoint titer [7, 11]?
**A.** 320

**Q.** And the IgG2b endpoint titer [7, 12]?
**A.** 320

**Q.** What about the IgG2b endpoint titer [7, 13] of the same compound?
**A.** 640

**Q.** And the IgG2b endpoint titer [7, 14]?
**A.** 160

**Q.** And the IgG2b endpoint titer [7, 15]?
**A.** 640

**Q.** What about the IgG2b endpoint titer [7, 16] of the same compound?
**A.** 160

**Q.** What about the IgG2b endpoint titer [7, 17] of the same compound?
**A.** 2560

**Q.** What about the IgG2b endpoint titer [7, 18] of the same compound?
**A.** 160

**Q.** And the IgG2b endpoint titer [7, 19]?
**A.** 1280

**Q.** What about the IgG2b endpoint titer [7, 20] of the same compound?
**A.** 2560

**Q.** And the IgG2b endpoint titer [7, 21]?
**A.** 1280

**Q.** And the IgG2b endpoint titer [7, 22]?
**A.** 5120

**Q.** And the IgG2b endpoint titer [7, 23]?
**A.** 5120

**Q.** And the IgG2b endpoint titer [7, 24]?
**A.** 5120

**Q.** What about the IgG2b endpoint titer [7, 25] of the same compound?
**A.** 5120

Source: patent publication US8765721B2, “Composition comprising phosphatidyl serine and an antigen or allergen and the use thereof” (Vaccine Technology Limited, priority 2004, dated 2014)
